Results: the supplement of paper PMC10627819

Columns and labels:
[1] = tested on: B. subtilis 168; assay: fitness (endpoint OD595 vs no drug) (fraction); higher = more growth
How it was run: (§1)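 Fitness was measured as bacterial growth in 384-well plates inoculated at OD595 0.01 (30 µl, or 55 µl for S. pneumoniae). Media were TSB, LB Lennox or CY, at 37 °C. OD595 was read every 30 min for 14 h and background-subtracted against the first reading. Fitness is OD595 at the transition into stationary phase divided by the robust mean of no-drug control wells, capped at 1.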

[2] = tested on: S. aureus DSM 20231; assay: as above
How it was run: as §1

[3] = tested on: S. aureus Newman; assay: as above
How it was run: as §1

[4] = tested on: B. subtilis 168; assay: Bliss interaction score (quartile over a dose matrix) (fitness difference); higher = more antagonism (negative = synergy)
How it was run: (§2)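 The Bliss score is observed minus expected fitness under the product model, reported as quartiles over technical, biological and donor/recipient replicates. Fitness is the OD595 at entry into stationary phase divided by the plate's robust no-drug mean and capped at 1. Single-drug fitness was inferred from combination data.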

[5] = tested on: S. aureus DSM 20231; assay: as above
How it was run: as §2

[6] = tested on: S. aureus Newman; assay: as above
How it was run: as §2

[7] = tested on: S. pneumoniae D39V; assay: as above
How it was run: as §2
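Throughout, for Bliss interaction score (quartile over a dose matrix): first quartile when negative (synergy) and third quartile when positive (antagonism).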

CC[C@H]1OC(=O)[C@H](C)[C@@H](O[C@H]2C[C@@](C)(OC)[C@@H](O)[C@H](C)O2)[C@H](C)[C@@H](O[C@@H]2O[C@H](C)C[C@H](N(C)C)[C@H]2O)[C@](C)(O)C[C@@H](C)CN(C)[C@H](C)[C@@H](O)[C@]1(C)O [Azithromycin] + CCC[C@@H]1C[C@@H](C(=O)N[C@@H]([C@H]2O[C@H](SC)[C@H](O)[C@@H](O)[C@H]2O)[C@H](C)Cl)N(C)C1 [Clindamycin]
fitness
Conditions	first compound 0.125 µg/mL	first compound 0.25 µg/mL	first compound 0.5 µg/mL	first compound 1 µg/mL
[1], partner 0.0625 µg/mL	–	0.632	0.554	–
[1], partner 0.125 µg/mL	–	0.388	0.379	–
[1], partner 0.25 µg/mL	–	0.367	0.299	0.0793
[2], partner 0.0312 µg/mL	–	–	0.142	–
[2], partner 0.0625 µg/mL	–	–	0.0702	–
[2], partner 0.125 µg/mL	0.0728	0.0466	0.0384	–
[3], partner 0.0312 µg/mL	0.693	–	0.481	–
[3], partner 0.125 µg/mL	–	0.113	0.0923	–

fitness, [1], one replicate
Conditions	first compound 0.5 µg/mL	first compound 1 µg/mL	first compound 2 µg/mL
partner 0.0039 µg/mL	0.945	0.922	0.516
partner 0.0078 µg/mL	0.84	0.776	0.186
partner 0.0156 µg/mL	0.776	0.715	0.23

Conditions	Bliss interaction score
[4]	0.109
[5]	-0.0395
[6]	-0.0621
[7]	0.0737

CC[C@H]1OC(=O)[C@H](C)[C@@H](O[C@H]2C[C@@](C)(OC)[C@@H](O)[C@H](C)O2)[C@H](C)[C@@H](O[C@@H]2O[C@H](C)C[C@H](N(C)C)[C@H]2O)[C@](C)(O)C[C@@H](C)CN(C)[C@H](C)[C@@H](O)[C@]1(C)O [Azithromycin] + CCN(CC)CCOC(=O)c1ccc(N)cc1 [Procaine]
fitness
Conditions	partner 85.5 µg/mL	partner 171 µg/mL	partner 342 µg/mL
[1], first compound 0.25 µg/mL	0.867	0.9	0.861
[1], first compound 0.5 µg/mL	0.777	0.778	0.787
[2], first compound 0.125 µg/mL	–	0.905	0.912
[2], first compound 0.5 µg/mL	0.441	–	0.426
[3], first compound 0.125 µg/mL	0.871	0.864	0.843
[3], first compound 0.25 µg/mL	0.803	0.877	0.779
[3], first compound 0.5 µg/mL	0.408	–	0.401

Conditions	Bliss interaction score
[4]	-0.0562
[5]	-0.0967
[6]	-0.0635
[7]	0.0533

CC[C@H]1OC(=O)[C@H](C)[C@@H](O[C@H]2C[C@@](C)(OC)[C@@H](O)[C@H](C)O2)[C@H](C)[C@@H](O[C@@H]2O[C@H](C)C[C@H](N(C)C)[C@H]2O)[C@](C)(O)C[C@@H](C)CN(C)[C@H](C)[C@@H](O)[C@]1(C)O [Azithromycin] + CN1C2=CC=CC=C2N=C3C1=CC=CC3=O [Pyocyanin]
fitness
Conditions	partner 1.25 µg/mL	partner 2.5 µg/mL	partner 5 µg/mL
[1], first compound 0.25 µg/mL	0.838	0.792	0.648
[1], first compound 0.5 µg/mL	–	0.631	–
[2], first compound 0.125 µg/mL	0.851	0.789	0.694
[2], first compound 0.25 µg/mL	0.797	0.8	0.666
[3], first compound 0.125 µg/mL	0.865	0.788	–
[3], first compound 0.25 µg/mL	0.856	0.759	–
[3], first compound 0.5 µg/mL	–	–	0.21

Conditions	Bliss interaction score
[4]	-0.0732
[5]	-0.0596
[6]	0.0847
[7]	-0.0827

CC[C@H]1OC(=O)[C@H](C)[C@@H](O[C@H]2C[C@@](C)(OC)[C@@H](O)[C@H](C)O2)[C@H](C)[C@@H](O[C@@H]2O[C@H](C)C[C@H](N(C)C)[C@H]2O)[C@](C)(O)C[C@@H](C)CN(C)[C@H](C)[C@@H](O)[C@]1(C)O [Azithromycin] + CN(N=O)C(=O)N[C@@H](C=O)[C@@H](O)[C@H](O)[C@H](O)CO [Streptozotocin]
fitness
Conditions	partner 0.15 µg/mL	partner 0.3 µg/mL	partner 0.6 µg/mL
[1], first compound 0.25 µg/mL	0.938	0.952	0.918
[1], first compound 0.5 µg/mL	0.897	0.902	0.842
[2], first compound 0.125 µg/mL	0.796	0.742	0.703
[2], first compound 0.25 µg/mL	0.72	0.73	0.736
[2], first compound 0.5 µg/mL	0.37	0.293	–
[3], first compound 0.125 µg/mL	0.81	0.707	0.564
[3], first compound 0.25 µg/mL	0.811	0.76	0.657
[3], first compound 0.5 µg/mL	0.576	0.5	0.367

Conditions	Bliss interaction score
[4]	0.0551
[5]	-0.0752
[6]	0.0643
[7]	0.0501

CC[C@H]1OC(=O)[C@H](C)[C@@H](O[C@H]2C[C@@](C)(OC)[C@@H](O)[C@H](C)O2)[C@H](C)[C@@H](O[C@@H]2O[C@H](C)C[C@H](N(C)C)[C@H]2O)[C@](C)(O)C[C@@H](C)CN(C)[C@H](C)[C@@H](O)[C@]1(C)O [Azithromycin] + CN[C@@H]1[C@H](O)[C@H](NC)[C@H]2O[C@@]3(O)C(=O)C[C@@H](C)O[C@H]3O[C@@H]2[C@H]1O [Spectinomycin]
fitness
Conditions	partner 2 µg/mL	partner 4 µg/mL	partner 8 µg/mL	partner 16 µg/mL
[1], first compound 0.25 µg/mL	0.918	0.895	0.815	–
[1], first compound 0.5 µg/mL	0.849	0.816	–	–
[2], first compound 0.125 µg/mL	–	0.856	0.774	0.755
[2], first compound 0.25 µg/mL	–	0.788	0.771	0.644
[3], first compound 0.125 µg/mL	–	0.84	0.849	0.821
[3], first compound 0.25 µg/mL	–	0.818	0.812	0.689

fitness, one replicate
Conditions	first compound 0.125 µg/mL	first compound 0.25 µg/mL	first compound 0.5 µg/mL
[2], partner 32 µg/mL	0.658	0.348	0.0388
[2], partner 64 µg/mL	0.0503	0.0326	0.0093
[3], partner 32 µg/mL	0.401	0.165	0.0078
[3], partner 64 µg/mL	0.0378	0.0151	0.003

Conditions	Bliss interaction score
[4]	-0.0884
[5]	-0.107
[6]	-0.124
[7]	-0.0642
